Earlier results in US20260240156A1, “OIL-BASED DISPERSION COMPOSITIONS OF SOLID PARTICULATE HYGROSCOPIC OR WATER-SOLUBLE PESTICIDES” (priority 2023, published 2026).

Conditions: in water compared to non-aqueous systems

CC1=NNC(=O)N(/N=C/c2cccnc2)C1 [Pymetrozine, 6-methyl-4-[(E)-(pyridin-3ylmethylene)amino]-4,5-dihydro-2H-[1,2,4]-triazin-3-one]
Photodegradation: significantly faster in water compared to non-aqueous systems
